Reference: patent US8546380B2, “Aminodihydrothiazine derivatives” (Shionogi & Co., Ltd., priority 2005, dated 2013)

Target: recombinant human BACE-1 protein (Homo sapiens (Human), UniProt P56817)
Assay: Measurement of Inhibition of β-Secretase Activity
Format: biochemical
Conditions: not given
Method: Zero point five μL of the test compounds (dissolved in N,N′-dimethylsulfoxide) were incubated with 48.5 μL of the fluorescence-quenched peptide substrate solution (Biotin-XSEVNLDAEFRHDSGC-Eu:X=ε-amino-n-capronic acid, Eu=Europium cryptate) and 1 μL of recombinant human BACE-1 protein (R&D systems) for 3 h at 30° C. in the 96 well half-area plate (black color plate, Costar). The substrate peptide was synthesized by reacting with Biotin-XSEVNLDAEFRHDSGC (Peptide Institute) and Cryptate TBPCOOH mono SMP (CIS bio international). […] The enzymatic reaction was performed in sodium acetate buffer (50 mM sodium acetate (pH5.0), 0.008% Triton X-100). After the reaction, a 50 μL of 8.0 μg/mL Streptavidin-XL665 (CIS bio international) dissolved in phosphate buffer (150 mM K2HPO4—KH2PO4 (pH 7.0), 0.008% Triton X-100, 0.8 M KF) was add to each well and incubated for 1 h at 30° C.

Chain of recombinant human BACE-1 protein (P56817 46-501): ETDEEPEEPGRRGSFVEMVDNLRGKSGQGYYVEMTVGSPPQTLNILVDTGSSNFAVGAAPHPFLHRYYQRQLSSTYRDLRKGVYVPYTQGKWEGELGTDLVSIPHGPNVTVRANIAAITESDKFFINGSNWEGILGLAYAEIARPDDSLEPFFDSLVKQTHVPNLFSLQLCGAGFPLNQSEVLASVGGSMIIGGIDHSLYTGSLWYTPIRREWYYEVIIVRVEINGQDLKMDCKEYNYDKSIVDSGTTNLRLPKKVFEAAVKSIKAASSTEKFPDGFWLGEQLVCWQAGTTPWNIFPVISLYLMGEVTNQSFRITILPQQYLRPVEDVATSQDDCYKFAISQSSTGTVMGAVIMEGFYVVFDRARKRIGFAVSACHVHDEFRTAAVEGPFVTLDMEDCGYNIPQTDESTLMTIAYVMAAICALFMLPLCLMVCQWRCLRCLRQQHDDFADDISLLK

SMILES	IC50 [µM]
CC1(c2cccc(NC(=O)c3nc4ccccc4s3)c2)CCSC(N)=N1 (stereo not drawn) [Compound 1108]	< 100

Same assay, conditions: fluorescence-quenched peptide substrate 18 nM, BACE-1 7.4 nM, 3 h at 30° C., pH5.0; read-out: IC50 value

IC50 [µM]	SMILES
< 100	CC1(c2cccc(NC(=O)c3ccc(O)cc3)c2)CCSC(N)=N1 (stereo not drawn) [Compound 1174]
< 100	CC1(c2cccc(NC(=O)c3ccc4c(c3)OCO4)c2)CCSC(N)=N1 (stereo not drawn) [Compound 796]
< 100	CC1(c2cccc(C(=O)Nc3nncs3)c2)CCSC(N)=N1 (stereo not drawn) [Compound 671]
< 100	COc1cnc(C(=O)Nc2cccc(C3(C)CCSC(N)=N3)c2)c(N)n1 (stereo not drawn) [Compound 906]
< 100	CNc1nc(OC)cnc1C(=O)Nc1cccc(C2(C)CCSC(N)=N2)c1 (stereo not drawn) [Compound 353]
< 100	CC1(c2cccc(NC(=O)c3cc(Br)ccc3Cl)c2)CCSC(N)=N1 (stereo not drawn) [Compound 986]
< 100	CC1(c2ccc(F)c(NC(=O)c3ccccn3)c2)CCSC(N)=N1 (stereo not drawn) [Compound 637]
< 100	CC1(c2cccc(NC(=O)c3ccc(OCc4ccccc4)cc3)c2)CCSC(N)=N1 (stereo not drawn) [Compound 144]
< 100	CCOCc1ccc(C(=O)Nc2cccc(C3(C)CCSC(N)=N3)c2)nc1 (stereo not drawn) [Compound 1185]
< 100	CC1(c2ccc(NC(=O)c3ccc(Br)cc3)cc2)CCSC(N)=N1 (stereo not drawn) [Compound 278]
< 100	COCC(=O)Nc1cccc(C2(C)CCSC(N)=N2)c1 (stereo not drawn) [Compound 988]
< 100	Cc1cc(Cl)cnc1C(=O)Nc1cccc(C2(C)CCSC(N)=N2)c1 (stereo not drawn) [Compound 802]
< 100	Cc1ccc(F)c(C(=O)Nc2cccc(C3(C)CCSC(N)=N3)c2)c1 (stereo not drawn) [Compound 373]
< 100	COc1ccc(NC(=O)CCc2cccc(C3(C)CCSC(N)=N3)c2)cc1 (stereo not drawn) [Compound 1039]
< 100	CC1(c2cccc(NCc3cccnc3)c2)CCSC(N)=N1 (stereo not drawn) [Compound 389]
< 100	Cc1cccc2cc(C(=O)Nc3cccc(C4(C)CCSC(N)=N4)c3)[nH]c12 (stereo not drawn) [Compound 908]
< 100	COc1ccc(NC(=O)/C=C/c2cccc(C3(C)CCSC(N)=N3)c2)cc1 (stereo not drawn) [Compound 790]
< 100	CCOc1ccc(C(=O)Nc2cccc(C3(C)CCSC(N)=N3)c2)cc1 (stereo not drawn) [Compound 480]
< 100	COc1ccc(NC(=O)NCc2cccc(C3(C)CCSC(N)=N3)c2)cc1 (stereo not drawn) [Compound 159]
< 100	CC1(c2cccc(NC(=O)C(=O)Nc3ccc(Cl)cc3)c2)CCSC(N)=N1 (stereo not drawn) [Compound 361]
< 100	CC1(c2cccc(NC(=O)c3ccc(Cl)c(Cl)c3)c2)CCSC(N)=N1 (stereo not drawn) [Compound 369]
< 100	Cn1cccc1C(=O)Nc1ccc(F)c(C2(C)CCSC(N)=N2)c1 (stereo not drawn) [Compound 497]
< 100	CC1(c2cccc(NCC3CCCCC3)c2)CCSC(N)=N1 (stereo not drawn) [Compound 120]
< 100	COc1cnc(C(=O)Nc2cccc(C3(C)CCSC(N)=N3)c2)c(OC)n1 (stereo not drawn) [Compound 984]
< 100	CC1(c2cccc(OCC(=O)Nc3ccc(OC(F)(F)F)cc3)c2)CCSC(N)=N1 (stereo not drawn) [Compound 326]

IC50 [µM]	SMILES
< 100	CC1(c2cccc(NC(=O)c3cnc(NCCO)cn3)c2)CCSC(N)=N1 (stereo not drawn) [Compound 1263]
< 100	COc1cnc(C(=O)Nc2cccc(C3(C)CCSC(N)=N3)c2)c(C)c1 (stereo not drawn) [Compound 1211]
< 100	CC(=O)NCc1cccc(C2(C)CCSC(N)=N2)c1 (stereo not drawn) [Compound 360]
< 100	COc1ccc(C(=O)Nc2cccc(C3(C)CCSC(N)=N3)c2)cc1[N+](=O)[O-] (stereo not drawn) [Compound 154]
< 100	CC1(c2cccc(CCC(=O)Nc3ccc(F)cc3)c2)CCSC(N)=N1 (stereo not drawn) [Compound 677]
< 100	CC1(c2cccc(NC(=O)c3cccc(Cl)c3F)c2)CCSC(N)=N1 (stereo not drawn) [Compound 932]
< 100	CC1(c2cc(F)cc(NC(=O)c3ncccc3C(N)=O)c2)CCSC(N)=N1 (stereo not drawn) [Compound 947]
< 100	CC1(c2cccc(OC(F)(F)C(=O)Nc3ccccc3)c2)CCSC(N)=N1 (stereo not drawn) [Compound 1257]
< 100	CC1(c2cc(NC(=O)c3ccc(F)cn3)cc(S(C)(=O)=O)c2)CCSC(N)=N1 (stereo not drawn) [Compound 836]
< 100	CC1(c2cccc(CNc3ccccn3)c2)CCSC(N)=N1 (stereo not drawn) [Compound 281]
< 100	CCn1c2ccccc2c2cc(NC(=O)COc3cccc(C4(C)CCSC(N)=N4)c3)ccc21 (stereo not drawn) [Compound 787]
< 100	CC1(c2cccc(NC(=O)c3ccc(F)c(Br)c3)c2)CCSC(N)=N1 (stereo not drawn) [Compound 215]
< 100	CC1(c2cccc(NC(=O)c3ccc(C(F)(F)F)cc3)c2)CCSC(N)=N1 (stereo not drawn) [Compound 479]
< 100	CC1(c2cccc(NC(=S)Nc3ccc(Cl)cc3)c2)CCSC(N)=N1 (stereo not drawn) [Compound 406]
< 100	CC1(c2cc(NC(=O)c3ccc[nH]3)ccc2F)CCSC(N)=N1 (stereo not drawn) [Compound 115]
< 100	CC1(c2cc(NC(=O)c3ccc4cc[nH]c4c3)ccc2F)CCSC(N)=N1 (stereo not drawn) [Compound 560]
< 100	CC1(c2cc(NC(=O)c3ccc(Cl)cc3)ccc2F)CCSC(N)=N1 (stereo not drawn) [Compound 31]
< 100	CC1(c2cc(NC(=O)c3cc4ccccc4[nH]3)ccc2F)CCSC(N)=N1 (stereo not drawn) [Compound 344]
< 100	COCCn1c(C(=O)Nc2cccc(C3(C)CCSC(N)=N3)c2)cc2ccccc21 (stereo not drawn) [Compound 77]
< 100	CC1(c2cccc(NC(=O)c3ccc4ncsc4c3)c2)CCSC(N)=N1 (stereo not drawn) [Compound 228]
< 100	CC1(c2cc(NC(=O)c3ccc(Cl)cc3Cl)ccc2F)CCSC(N)=N1 (stereo not drawn) [Compound 544]
< 100	Cc1ccc(C(=O)Nc2cccc(C3(C)CCSC(N)=N3)c2)cc1 (stereo not drawn) [Compound 550]
< 100	CC(C)Nc1cnc(C(=O)Nc2cccc(C3(C)CCSC(N)=N3)c2)cn1 (stereo not drawn) [Compound 157]
< 100	CC1(c2cccc(NC(=O)c3ccc(F)c(O)c3)c2)CCSC(N)=N1 (stereo not drawn) [Compound 469]
< 100	CC1(c2cccc(NCCc3ccc(F)cc3)c2)CCSC(N)=N1 (stereo not drawn) [Compound 966]

IC50 [µM]	SMILES
< 100	CC1(c2cccc(NC(=O)c3ccco3)c2)CCSC(N)=N1 (stereo not drawn) [Compound 335]
< 100	CC1(c2cccc(CNC(=O)Nc3ccccc3)c2)CCSC(N)=N1 (stereo not drawn) [Compound 4]
< 100	COc1ccc2nc(NC(=O)c3cccc(C4(C)CCSC(N)=N4)c3)sc2c1 (stereo not drawn) [Compound 117]
< 100	CC1(c2ccc(C(=O)NCc3cccc(Cl)c3)cc2)CCSC(N)=N1 (stereo not drawn) [Compound 363]
< 100	CC1(c2cccc(NCc3ccc(F)cc3)c2)CCSC(N)=N1 (stereo not drawn) [Compound 1243]
< 100	CC1(c2cccc(NC(=O)c3cc4ccccc4o3)c2)CCSC(N)=N1 (stereo not drawn) [Compound 303]
< 100	CC1(c2cccc(NC(=O)C(=O)Nc3ccccc3)c2)CCSC(N)=N1 (stereo not drawn) [Compound 1147]
< 100	COc1ccc(C(=O)Nc2cccc(C3(C)CCSC(N)=N3)c2)cc1 (stereo not drawn) [Compound 300]
< 100	CC1(c2cccc(NC(=O)c3ccccc3C#N)c2)CCSC(N)=N1 (stereo not drawn) [Compound 711]
< 100	CCOC(=O)C#Cc1cccc(C2(C)CCSC(N)=N2)c1 (stereo not drawn) [Compound 933]
< 100	CC1(c2cccc(NC(=O)c3ccc(Br)cc3)c2)CCSC(N)=N1 (stereo not drawn) [Compound 959]
< 100	CC1(c2cccc(OCC(=O)Nc3ccc(O)cc3)c2)CCSC(N)=N1 (stereo not drawn) [Compound 402]
< 100	CC(=O)c1ccc(C(=O)Nc2cccc(C3(C)CCSC(N)=N3)c2)cc1 (stereo not drawn) [Compound 314]
< 100	CC1(c2cccc(NC(=O)c3c[nH]c(=O)cn3)c2)CCSC(N)=N1 (stereo not drawn) [Compound 1077]
< 100	CC1(c2ccc(F)c(NS(=O)(=O)c3ccc(Cl)cc3)c2)CCSC(N)=N1 (stereo not drawn) [Compound 493]
< 100	CC1(c2cccc(C(=O)Nc3nc4ccc(O)cc4s3)c2)CCSC(N)=N1 (stereo not drawn) [Compound 1089]
< 100	CC1(c2cccc(NC(=O)CCNC(=O)c3ccc(C(F)(F)F)cn3)c2)CCSC(N)=N1 (stereo not drawn) [Compound 1020]
< 100	CC1(c2cccc(NC(=O)c3cccc4c3OCCO4)c2)CCSC(N)=N1 (stereo not drawn) [Compound 207]
< 100	CC1(c2cccc(NC(=O)c3cccc(Cl)c3)c2)CCSC(N)=N1 (stereo not drawn) [Compound 568]
< 100	CC1(c2cccc(OCC(=O)Nc3ccc4c(c3)OCCO4)c2)CCSC(N)=N1 (stereo not drawn) [Compound 509]
< 100	CC1(c2cccc(NC(=O)c3ccc(Cl)cc3Cl)c2)CCSC(N)=N1 (stereo not drawn) [Compound 182]
< 100	CC1(c2cccc(NC(=O)Cc3cc(Cl)ccn3)c2)CCSC(N)=N1 (stereo not drawn) [Compound 113]
< 100	CC1(c2cccc(OCC(=O)Nc3ccc(C(F)(F)F)cc3)c2)CCSC(N)=N1 (stereo not drawn) [Compound 105]
< 100	CC1(c2cccc(NC(=O)c3ccc(-c4ccccc4)cc3)c2)CCSC(N)=N1 (stereo not drawn) [Compound 761]

Same assay, conditions: recombinant human BACE-1 protein, 3 h at 30° C., pH5.0; read-out: IC50 value

IC50 [µM]	SMILES
6.7	CC1(c2ccc(F)c(NC(=O)c3ccc4ccccc4n3)c2)CCSC(N)=N1 (stereo not drawn) [Compound 799]
0.156	CC1(c2cc(Br)cc(NC(=O)c3ccco3)c2)CCSC(N)=N1 (stereo not drawn) [Compound 786]
5.6	CC1(c2cccc(NCc3ccc(Cl)cc3)c2)CCSC(N)=N1 (stereo not drawn) [Compound 753]
0.222	CC1(c2cc(Cl)cc(NC(=O)c3cc4ccccc4s3)c2)CCSC(N)=N1 (stereo not drawn) [Compound 832]
0.049	CC1(c2cc(Cl)cc(NC(=O)c3ccc(Cl)cn3)c2)CCSC(N)=N1 (stereo not drawn) [Compound 739]

SMILES	IC50 [µM]
COCc1cc(NC(=O)c2ccc(OC(F)(F)F)cc2)cc(C2(C)CCSC(N)=N2)c1 (stereo not drawn) [Compound 664]	3.64
